From patent publication EP1345943B1, “INHIBITORS OF PAPILLOMA VIRUS” (BOEHRINGER INGELHEIM (CANADA) LTD., priority 2000, dated 2002)

biological target: E1-E2-DNA complex (Human papillomavirus 11, UniProt P04015); assay: E2-dependent E1 DNA binding assay (E1-E2 DNA assay); details: E1-E2 DNA assay of Example 11, HPV-11
Description: This particular assay determines the ability of a test compound to inhibit the activity (IC50) of HPV-11 DNA replication. More specifically, in the assay described herein, the inhibitory activity of the test compound is evaluated based on its ability to interfere with the E1-E2-DNA origin of replication interaction, thereby inhibiting initiation of viral DNA replication.
This assay was modeled on a similar assay for SV40 T Antigen described by McKay (J. Mol. Biol., 1981,145:471). A 400bp radiolabeled DNA probe, containing the -HPV-11 origin of replication (Chiang et al.., 1992, Proc. Natl.-Acad. Sci. USA 89:5799) was produced by pcr, using plasmid pBluescript™ SK encoding the origin (nucleotides 7886-61 of the HPV-11 genome in unique BAMH1 site) as template and primers flanking the origin. Radiolabel was incorporated as [33p]dCTP. Binding assay buffer consisted of: 20 mM Tris pH 7.6, 100 mM NaCI, 1 mM DTT, 1 mM EDTA.
Other reagents used were protein A-SPA beads (type II, Amersham) and K72 rabbit polyclonal antiserum, raised against a peptide corresponding to the C-terminal 14 amino acids of HPV-11 E1. Following the protocol from Amersham, one bottle of beads was mixed with 25 mL of binding assay buffer. For the assay, a saturating amount of K72 antiserum was added to the beads and the mixture was incubated for 1 h, washed with one volume of binding assay buffer, and then resuspended in the same volume of fresh binding assay buffer. Binding reactions contained 8 ng of E2, approximately 100-200 ng of purified E1, and 0.4 ng of radiolabeled probe in a total of 80 µL of binding assay buffer. After 1 h at room temperature, 25 µL of K72 antibody-SPA bead suspension was added to with the binding reaction and mixed. After an additional hour of incubation at room temperature, the reactions were centrifuged briefly to pellet the beads and the extent of complex formation was determined by scintillation counting on a Packard TopCount™. Typically, the signal for reactions containing E1 and E2 was 20-30 fold higher than the background observed when either E1, E2, or both was omitted.

Chain of E1-E2-DNA complex (P04015 whole entry, one chain of several): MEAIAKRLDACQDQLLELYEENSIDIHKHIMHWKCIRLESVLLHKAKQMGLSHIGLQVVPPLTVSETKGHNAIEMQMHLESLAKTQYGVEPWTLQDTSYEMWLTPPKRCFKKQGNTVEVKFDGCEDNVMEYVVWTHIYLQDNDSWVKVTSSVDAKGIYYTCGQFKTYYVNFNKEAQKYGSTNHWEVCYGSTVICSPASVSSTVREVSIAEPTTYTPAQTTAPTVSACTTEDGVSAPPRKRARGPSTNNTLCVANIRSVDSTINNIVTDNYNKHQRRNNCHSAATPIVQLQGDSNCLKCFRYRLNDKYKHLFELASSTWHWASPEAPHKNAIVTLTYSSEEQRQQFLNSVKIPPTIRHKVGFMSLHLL

SMILES | IC50 [µM]
COC(=O)C1C(C(=O)Nc2ccc3c(c2)OCO3)C(c2ccc(Cl)c(Cl)c2)OC12C(=O)c1ccccc1C2=O (racemic) [Compound 1022] | 0.5 to 5
COc1cccc(C2OC3(C(=O)c4ccccc4C3=O)C(C(=O)O)C2C(=O)Nc2ccc3c(c2)OCO3)c1 (racemic) [Compound 1023] | 5 to 50
CC(=O)c1ccc(NC(=O)C2C(c3ccc(Br)c(Br)c3)OC3(C(=O)c4ccccc4C3=O)C2C(=O)O)cc1 (racemic) [Compound 1027] | < 0.5
CC(=O)c1ccc(NC(=O)C2C(c3ccc(Cl)c(Cl)c3)OC3(C(=O)c4ccccc4C3=O)C2C(=O)O)cc1 (racemic) [Compound 1047] | 0.5 to 5
Cc1ccc(NC(=O)C2C(c3ccc(Br)c(Br)c3)OC3(C(=O)c4ccccc4C3=O)C2C(=O)O)cc1 (racemic) [Compound 1072] | < 0.5
O=C(Nc1ccccc1)C1C(c2ccc(Br)c(Br)c2)OC2(C(=O)c3ccccc3C2=O)C1C(=O)O (racemic) [Compound 1074] | < 0.5
O=C(NN1CCOCC1)C1C(c2ccc(Br)c(Br)c2)OC2(C(=O)c3ccccc3C2=O)C1C(=O)O (racemic) [Compound 1075] | 0.5 to 5
O=C(Nc1ccc(-c2csnn2)cc1)C1C(c2ccc(Br)c(Br)c2)OC2(C(=O)c3ccccc3C2=O)C1C(=O)O (racemic) [Compound 1076] | < 0.5
O=C(NCCc1ccccc1)C1C(c2ccc(Cl)c(Cl)c2)OC2(C(=O)c3ccccc3C2=O)C1C(=O)O (racemic) [Compound 1077] | < 0.5
O=C(Nc1ccc(N2CCOCC2)cc1)C1C(c2ccc(Br)c(Br)c2)OC2(C(=O)c3ccccc3C2=O)C1C(=O)O (racemic) [Compound 1078] | < 0.5
O=C(Nc1ccc(Br)c(Cl)c1)C1C(c2ccc(Br)c(Br)c2)OC2(C(=O)c3ccccc3C2=O)C1C(=O)O (racemic) [Compound 1102] | 0.5 to 5
O=C1C2C(c3ccc(Cl)c(Cl)c3)OC3(C(=O)c4ccccc4C3=O)C2C(=O)N1c1ccc2c(c1)OCO2 (racemic) [Compound 2013] | 0.5 to 5
CC(=O)c1ccc(N2C(=O)C3C(c4ccc(Cl)c(Cl)c4)OC4(C(=O)c5ccccc5C4=O)C3C2=O)cc1 (racemic) [Compound 2016] | 0.5 to 5
O=C(Nc1ccc2c(c1)OCO2)C1C(c2cc(Cl)cc(Cl)c2)OC23C(=O)c4ccccc4C2(O)OC(=O)C13 (racemic) [Compound 3001] | 0.5 to 5
O=C(NC1CCCCC1)C1C(c2ccc(Cl)cc2)OC23C(=O)c4ccccc4C2(O)OC(=O)C13 (racemic) [Compound 3002] | 5 to 50
O=C(NCc1ccccc1)C1C(c2ccc(Cl)cc2)OC23C(=O)c4ccccc4C2(O)OC(=O)C13 (racemic) [Compound 3003] | 5 to 50
O=C(Nc1ccc2c(c1)OCO2)C1C(c2ccc(Cl)cc2)OC23C(=O)c4ccccc4C2(O)OC(=O)C13 (racemic) [Compound 3005] | 5 to 50
O=C(Nc1ccccc1Cl)C1C(c2ccc(Cl)cc2)OC23C(=O)c4ccccc4C2(O)OC(=O)C13 (racemic) [Compound 3006] | 5 to 50
CC(NC(=O)C1C(c2ccc(Cl)c(Cl)c2)OC23C(=O)c4ccccc4C2(O)OC(=O)C13)c1ccccc1 (racemic) [Compound 3007] | 5 to 50
[N-]=[N+]=Nc1c(F)c(F)c(CNC(=O)C2C(c3ccc(Cl)c(Cl)c3)OC34C(=O)c5ccccc5C3(O)OC(=O)C24)c(F)c1F (racemic) [Compound 3008] | 5 to 50
CC(=O)c1ccc(NC(=O)C2C(c3ccc(Cl)c(Cl)c3)OC34C(=O)c5ccccc5C3(O)OC(=O)C24)cc1 (racemic) [Compound 3009] | < 0.5
O=C(NCc1ccccc1)C1C(c2ccc(Cl)c(Cl)c2)OC23C(=O)c4ccccc4C2(O)OC(=O)C13 (racemic) [Compound 3011] | 0.5 to 5
CC(=O)c1ccc(NC(=O)C2C(C=C(C)c3ccccc3)OC3(C(=O)c4ccccc4C3=O)C2C(=O)O)cc1 (racemic) [Compound 4008] | 5 to 50
CC(=O)c1ccc(NC(=O)C2C(C(C)=Cc3ccccc3)OC3(C(=O)c4ccccc4C3=O)C2C(=O)O)cc1 (racemic) [Compound 4009] | 5 to 50

SMILES | IC50 [µM]
CC(=O)c1ccc(NC(=O)C2C(C(Br)=Cc3ccccc3)OC3(C(=O)c4ccccc4C3=O)C2C(=O)O)cc1 (racemic) [Compound 4012] | 5 to 50
O=C(Nc1ccc2c(c1)OCO2)C1C(c2ccc(Cl)c(Cl)c2)OC2(C(=O)c3ccccc3C2=O)C1C(=O)O (racemic) [Compound 5001] | 0.5 to 5
COC(=O)C1C(C(=O)Nc2ccc3c(c2)OCO3)C(c2ccc(Cl)c(Cl)c2)OC12C(=O)c1ccccc1C21CO1 (racemic) [Compound 7001] | 5 to 50
O=C1C2C(c3ccc(Cl)c(Cl)c3)OC3(C(=O)c4ccccc4C3O)C2C(=O)N1c1ccc2c(c1)OCO2 (racemic) [Compound 9001] | 5 to 50
O=C(NC1CC1c1ccccc1)C1C(c2ccc(Br)c(Br)c2)OC2(C(=O)c3ccccc3C2=O)C1C(=O)O (single isomer, unassigned) [Compound 1088] | 0.5 to 5
O=C(NC1CC1c1ccccc1)C1C(c2ccc(Br)c(Br)c2)OC2(C(=O)c3ccccc3C2=O)C1C(=O)O (single isomer, unassigned) [Compound 1089] | < 0.5
O=C(Nc1ccc(-c2csnn2)cc1)C1C(c2ccc(Br)c(Br)c2)OC2(C(=O)c3ccccc3C2=O)C1C(=O)O (single isomer, unassigned) [Compound A1001] | 5 to 50
O=C(Nc1ccc(-c2csnn2)cc1)C1C(c2ccc(Br)c(Br)c2)OC2(C(=O)c3ccccc3C2=O)C1C(=O)O (single isomer, unassigned) [Compound A1002] | < 0.5
Cc1ccc2c(c1)C(=O)C1(OC(c3ccc(Cl)c(Cl)c3)C(C(=O)Nc3ccc4c(c3)OCO4)C1C(=O)O)C2=O (single isomer, unassigned) [Compound A1003] | 5 to 50
Cc1ccc2c(c1)C(=O)C1(OC(c3ccc(Cl)c(Cl)c3)C(C(=O)Nc3ccc4c(c3)OCO4)C1C(=O)O)C2=O (single isomer, unassigned) [Compound A1004] | 5 to 50
Cc1ccc2c(c1)C(=O)C1(OC(c3ccc(Cl)c(Cl)c3)C(C(=O)Nc3ccc4c(c3)OCO4)C1C(=O)O)C2=O (single isomer, unassigned) [Compound A1005] | < 0.5
Cc1ccc2c(c1)C(=O)C1(OC(c3ccc(Br)c(Br)c3)C(C(=O)Nc3ccc(-c4csnn4)cc3)C1C(=O)O)C2=O (single isomer, unassigned) [Compound A1010] | 0.5 to 5
Cc1ccc2c(c1)C(=O)C1(OC(c3ccc(Br)c(Br)c3)C(C(=O)Nc3ccc(-c4csnn4)cc3)C1C(=O)O)C2=O (single isomer, unassigned) [Compound A1011] | < 0.5
O=C(Nc1ccc(N2CCOCC2)cc1)C1C(c2ccc(Br)c(Br)c2)OC2(C(=O)c3ccccc3C2=O)C1C(=O)O (single isomer, unassigned) [Compound A1012] | 5 to 50
O=C(Nc1ccc(N2CCOCC2)cc1)C1C(c2ccc(Br)c(Br)c2)OC2(C(=O)c3ccccc3C2=O)C1C(=O)O (single isomer, unassigned) [Compound A1013] | < 0.5
Cc1ccc2c(c1)C(=O)C1(OC(c3ccc(Br)c(Br)c3)C(C(=O)Nc3ccc(N4CCOCC4)cc3)C1C(=O)O)C2=O (single isomer, unassigned) [Compound A1014] | < 0.5
Cc1cc2c(cc1F)C(=O)C1(OC(c3ccc(Br)c(Br)c3)C(C(=O)Nc3ccc(N4CCOCC4)cc3)C1C(=O)O)C2=O (single isomer, unassigned) [Compound A1015] | < 0.5
Cc1cc2c(cc1F)C(=O)C1(OC(c3ccc(Br)c(Br)c3)C(C(=O)Nc3ccc(N4CCOCC4)cc3)C1C(=O)O)C2=O (single isomer, unassigned) [Compound A1016] | 0.5 to 5
Cc1ccc2c(c1)C(=O)C13OC(c4ccc(Br)c(Br)c4)C(C(=O)Nc4ccc(N5CCOCC5)cc4)C1C(=O)OC23O (single isomer, unassigned) [Compound B1002] | < 0.5
Cc1ccc2c(c1)C1(O)OC(=O)C3C(C(=O)Nc4ccc(N5CCOCC5)cc4)C(c4ccc(Br)c(Br)c4)OC31C2=O (single isomer, unassigned) [Compound B1003] | < 0.5
Cc1ccc2c(c1)C(=O)C13OC(c4ccc(Br)c(Br)c4)C(C(=O)NCCc4ccccc4Cl)C1C(=O)OC23O (single isomer, unassigned) [Compound B1004] | 5 to 50
Cc1ccc2c(c1)C1(O)OC(=O)C3C(C(=O)NCCc4ccccc4Cl)C(c4ccc(Br)c(Br)c4)OC31C2=O (single isomer, unassigned) [Compound B1005] | 5 to 50
Cc1ccc2c(c1)C(=O)C13OC(c4ccc(Br)c(Br)c4)C(C(=O)NCCc4ccccc4Cl)C1C(=O)OC23O (single isomer, unassigned) [Compound B1006] | 0.5 to 5
